Measurements: patent US20220288228A1, “METHODS OF CANCER TREATMENT BY DELIVERY OF siRNAs AGAINST BCLXL AND MCL1 USING A POLYPEPTIDE NANOPARTICLE” (Sirnaomics, Inc., priority 2021, published 2022)

What was measured:
[1] = target: BCLxL (Homo sapiens, UniProt Q07817); conditions: consequence of its inhibition of BCLxL; cited from earlier work
[2] = tested on: FaDu H&N cancer cells; test: Sensitivity of FaDu cells to cisplatin with siRNAs; type: cell-based
Description: BCLxL and MCL1 siRNAs were mixed together in Lipofectamine RNAiMax and used to transfect FaDu H&N cancer cells. Final combined siRNA concentrations of 0.05 nM, 0.15 nM and 0.45 nM were compared with the effect of a non-silencing (NS) siRNA administered at the same concentrations. The effect of treatment with siRNAs on sensitivity to cisplatin (at 0-64 μM) also were evaluated.

Sequence of BCLxL (Q07817 whole entry, species assumed): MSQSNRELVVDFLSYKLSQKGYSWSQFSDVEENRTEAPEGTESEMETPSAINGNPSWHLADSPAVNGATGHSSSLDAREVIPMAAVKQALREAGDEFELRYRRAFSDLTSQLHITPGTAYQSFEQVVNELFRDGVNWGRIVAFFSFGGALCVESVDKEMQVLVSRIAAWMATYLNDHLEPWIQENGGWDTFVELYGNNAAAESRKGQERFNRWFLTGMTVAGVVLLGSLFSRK

| Compound | thrombocytopenia [1] | amount of cisplatin required to cause 100% inhibition of the tumor cell viability ([2]; in the presence of 0.45 nM NS siRNA) | amount of cisplatin required to cause 100% inhibition of the tumor cell viability ([2]; in the presence of 0.45 nM of BCLxL/MCL1 siRNAs) |
| --- | --- | --- | --- |
| CC1(C)CCC(c2ccc(Cl)cc2)=C(CN2CCN(c3ccc(C(=O)NS(=O)(=O)c4ccc(N[C@H](CCN5CCOCC5)CSc5ccccc5)c(S(=O)(=O)C(F)(F)F)c4)cc3)CC2)C1 [ABT263] | induces thrombocytopenia |  |  |
| N.N.[Cl][Pt][Cl] [cisplatin] |  | ~32 µM | < 1 µM |
